Source: US7592457B2 (Korea Research Institute of Chemical Technology, priority 2004, dated 2009)

Assays:
hD2L receptor = target: T1, hD2L receptor (Homo sapiens, UniProt P14416); experiment: Radioligand binding, dopamine D2 ([3H]spiperone); details: read-out: Binding affinity (Inhibition rate % at 10 μM) D2
T1 construct: purchased BioSignal Packard Inc., Montreal, Canada
Method: (§1) The radioligands used were [^3H] spiperone (for hD2L and hD3 receptors, 1 nM) and [^3H] YM-09151-2 (for hD4.2 receptor, 0.06 nM). Radioligand bindings were performed by the protocols provided by the supplier of receptor membranes (BioSignal Packard Inc., Montreal, Canada). Briefly, the buffer used in D2 or D3 receptor binding assay was 50 mM Tris-HCl (pH 7.4), 10 mM MgCl2, 1 mM EDTA, or 50 mM Tris-HCl (pH 7.4), 5 mM MgCl2, 5 mM EDTA, 5 mM KCl, 1.5 mM CaCl2, 120 mM NaCl, respectively. In [^3H] YM-09151-2 receptor binding assays, the buffer containing 50 mM Tris-HCl (pH 7.4), 5 mM MgCl2, 5 mM EDTA, 5 mM KCl and 1.5 mM CaCl2 was used. Nonspecific binding was determined with haloperidol (10 μM) or clozapine (10 μM) for D2 and D3, and D4 receptors, respectively. Competition binding studies were carried out with 7-8 concentrations of the test compound run in duplicate tubes, and isotherms from three assays were calculated by computerized nonlinear regression analysis (GraphPad Prism Program, San Diego, […]) to yield median inhibitory concentration (IC50) values.

hD4.2 receptor = target: T2, hD4.2 receptor (Homo sapiens, UniProt P21917, DEL265-296); experiment: Radioligand binding, dopamine D4 ([3H]YM-09151-2); details: read-out: Binding affinity (Inhibition rate % at 10 μM) D4
T2 construct: purchased BioSignal Packard Inc., Montreal, Canada
T2 sequence (P21917 with tags, fused parts or gaps DEL265-296): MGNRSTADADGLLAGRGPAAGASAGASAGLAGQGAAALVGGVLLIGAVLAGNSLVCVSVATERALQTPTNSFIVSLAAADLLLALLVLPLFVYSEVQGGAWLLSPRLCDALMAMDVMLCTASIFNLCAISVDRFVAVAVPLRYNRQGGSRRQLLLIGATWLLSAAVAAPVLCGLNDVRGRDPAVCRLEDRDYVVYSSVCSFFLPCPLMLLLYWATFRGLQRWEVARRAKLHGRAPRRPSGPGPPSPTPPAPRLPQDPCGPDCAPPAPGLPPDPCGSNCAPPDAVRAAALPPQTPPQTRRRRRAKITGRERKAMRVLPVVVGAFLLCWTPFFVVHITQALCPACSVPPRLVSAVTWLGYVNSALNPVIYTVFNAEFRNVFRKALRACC
Method: as §1

5-HT1a = target: T3, 5-HT1a (Homo sapiens, UniProt P08908); experiment: Radioligand binding, 5-HT1a ([3H]8-OH-DPAT); details: read-out: Binding affinity (Inhibition rate % at 10 μM) 5HT1a
T3 construct: purchased Euroscreen/BioSignal Packard Inc
T3 sequence (P08908 1-422): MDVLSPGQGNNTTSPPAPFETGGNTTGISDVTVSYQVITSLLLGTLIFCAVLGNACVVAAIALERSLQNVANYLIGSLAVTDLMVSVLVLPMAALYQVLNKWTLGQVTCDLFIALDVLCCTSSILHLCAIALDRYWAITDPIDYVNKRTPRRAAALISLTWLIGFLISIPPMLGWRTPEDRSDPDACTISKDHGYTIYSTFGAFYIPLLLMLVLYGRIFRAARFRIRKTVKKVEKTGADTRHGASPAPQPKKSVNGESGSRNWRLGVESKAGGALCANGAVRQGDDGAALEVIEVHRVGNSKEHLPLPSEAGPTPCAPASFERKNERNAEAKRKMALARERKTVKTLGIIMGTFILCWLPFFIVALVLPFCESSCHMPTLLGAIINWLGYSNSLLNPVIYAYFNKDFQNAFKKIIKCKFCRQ
Method: (§2) Radioligand bindings were performed according to the test method provided by the supplier of receptor membrane (Euroscreen/BioSignal Packard Inc.).

[1] = target: T4, human serotonin 5-HT6 receptor (Homo sapiens, UniProt P50406); experiment: [3H]LSD binding at cloned 5-HT6 receptors; details: for IC50: [3H]LSD 1.87 nM, cloned receptor membranes, 37° C., 60 min, read-out: IC50; for 5-HT6 affinity compared with known selective antagonists: in words; for inhibition at 10 µM: read-out: Binding affinity (Inhibition rate % at 10 μM) 5HT6
T4 construct: made in house; host or cells: Sf21 insect cells (pBacPAK8 baculovirus vector)

5-HT2a = target: T5, 5-HT2a (Homo sapiens, UniProt P28223); experiment: Radioligand binding, 5-HT2a ([3H]Ketanserin); details: read-out: Binding affinity (Inhibition rate % at 10 μM) 5HT2a
T5 construct: purchased Euroscreen/BioSignal Packard Inc
Method: as §2

5-HT2c = target: T6, 5-HT2c (Homo sapiens, UniProt P28335); experiment: Radioligand binding, 5-HT2c ([3H]Mesulergine); details: read-out: Binding affinity (Inhibition rate % at 10 μM) 5HT2c
T6 construct: purchased Euroscreen/BioSignal Packard Inc
T6 sequence (P28335 33-458): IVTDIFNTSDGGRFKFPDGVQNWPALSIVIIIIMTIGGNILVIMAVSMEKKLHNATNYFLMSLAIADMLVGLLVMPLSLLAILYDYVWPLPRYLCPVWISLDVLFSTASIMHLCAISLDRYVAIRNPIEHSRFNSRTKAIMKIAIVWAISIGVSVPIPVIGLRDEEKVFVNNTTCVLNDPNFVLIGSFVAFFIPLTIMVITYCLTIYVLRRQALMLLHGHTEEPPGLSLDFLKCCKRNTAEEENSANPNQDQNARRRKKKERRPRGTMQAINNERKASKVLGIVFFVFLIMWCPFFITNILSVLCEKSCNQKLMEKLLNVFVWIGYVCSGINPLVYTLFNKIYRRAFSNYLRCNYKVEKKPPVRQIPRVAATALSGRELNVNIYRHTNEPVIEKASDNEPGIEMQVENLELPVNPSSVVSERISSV
Method: as §2

5-HT7 = target: T7, 5-HT7 (Homo sapiens, UniProt P34969); experiment: Radioligand binding, 5-HT7 ([3H]LSD); details: read-out: Binding affinity (Inhibition rate % at 10 μM) 5HT7
T7 construct: purchased Euroscreen/BioSignal Packard Inc
Method: as §2

D1 = D1 (Homo sapiens, UniProt P21728); experiment: Radioligand binding for selectivity, D1; details: read-out: Binding affinity (Inhibition rate % at 10 μM) D1
hD3 receptor = target: T8, hD3 receptor (Homo sapiens, UniProt P35462); experiment: Radioligand binding, dopamine D3 ([3H]spiperone); details: read-out: Binding affinity (Inhibition rate % at 10 μM) D3
T8 construct: purchased BioSignal Packard Inc., Montreal, Canada
Method: as §1

T1 sequence (P14416 whole entry): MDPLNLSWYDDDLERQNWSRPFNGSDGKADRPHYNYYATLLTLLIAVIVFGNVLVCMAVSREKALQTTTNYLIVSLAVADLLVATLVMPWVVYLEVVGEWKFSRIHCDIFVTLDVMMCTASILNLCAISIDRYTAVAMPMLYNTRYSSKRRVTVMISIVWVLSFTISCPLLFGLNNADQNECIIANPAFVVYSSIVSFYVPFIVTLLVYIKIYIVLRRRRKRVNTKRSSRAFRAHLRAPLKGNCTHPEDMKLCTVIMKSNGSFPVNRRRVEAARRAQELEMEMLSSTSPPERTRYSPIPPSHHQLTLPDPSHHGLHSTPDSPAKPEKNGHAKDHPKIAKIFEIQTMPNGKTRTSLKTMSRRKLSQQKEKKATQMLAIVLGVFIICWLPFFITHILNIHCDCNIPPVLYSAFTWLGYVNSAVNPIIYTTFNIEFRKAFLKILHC
T4 sequence (P50406 whole entry): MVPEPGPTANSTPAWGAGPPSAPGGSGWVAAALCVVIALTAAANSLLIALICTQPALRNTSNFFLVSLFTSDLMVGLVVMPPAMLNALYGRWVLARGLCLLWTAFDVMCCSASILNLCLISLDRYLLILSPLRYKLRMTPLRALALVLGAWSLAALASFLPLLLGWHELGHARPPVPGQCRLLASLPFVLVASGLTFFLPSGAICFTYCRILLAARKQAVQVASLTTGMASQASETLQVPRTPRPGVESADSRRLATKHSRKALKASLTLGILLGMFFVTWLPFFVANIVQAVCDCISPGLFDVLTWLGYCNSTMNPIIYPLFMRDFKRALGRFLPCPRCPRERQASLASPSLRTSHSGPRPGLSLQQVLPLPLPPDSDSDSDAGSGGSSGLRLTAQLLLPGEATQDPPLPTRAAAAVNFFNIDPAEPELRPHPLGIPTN
T7 sequence (P34969 whole entry): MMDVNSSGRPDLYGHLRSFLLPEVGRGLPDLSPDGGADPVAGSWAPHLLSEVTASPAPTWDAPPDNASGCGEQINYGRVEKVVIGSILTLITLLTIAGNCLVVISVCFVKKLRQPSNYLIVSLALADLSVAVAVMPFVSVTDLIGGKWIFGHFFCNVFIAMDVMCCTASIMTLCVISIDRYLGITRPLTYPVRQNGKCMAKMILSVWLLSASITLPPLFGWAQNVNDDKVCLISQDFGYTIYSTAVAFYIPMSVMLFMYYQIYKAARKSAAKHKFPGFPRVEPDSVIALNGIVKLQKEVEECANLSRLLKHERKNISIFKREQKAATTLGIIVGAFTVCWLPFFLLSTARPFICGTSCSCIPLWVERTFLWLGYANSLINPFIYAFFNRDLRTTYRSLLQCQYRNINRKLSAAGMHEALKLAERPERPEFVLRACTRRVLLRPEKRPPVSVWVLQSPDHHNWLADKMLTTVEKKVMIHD
Chain of D1 (P21728 whole entry): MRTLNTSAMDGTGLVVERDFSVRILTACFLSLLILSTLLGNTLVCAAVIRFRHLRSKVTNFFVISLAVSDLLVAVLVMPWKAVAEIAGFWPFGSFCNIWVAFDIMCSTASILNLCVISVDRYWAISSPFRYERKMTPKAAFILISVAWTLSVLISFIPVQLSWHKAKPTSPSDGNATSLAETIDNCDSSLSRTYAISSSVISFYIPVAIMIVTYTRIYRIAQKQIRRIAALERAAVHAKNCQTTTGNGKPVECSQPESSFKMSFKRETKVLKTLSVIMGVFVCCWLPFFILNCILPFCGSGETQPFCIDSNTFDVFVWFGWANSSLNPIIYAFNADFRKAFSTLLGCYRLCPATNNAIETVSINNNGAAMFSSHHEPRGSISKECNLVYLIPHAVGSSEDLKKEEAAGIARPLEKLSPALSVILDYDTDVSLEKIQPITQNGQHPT
T5 sequence (P28223 whole entry): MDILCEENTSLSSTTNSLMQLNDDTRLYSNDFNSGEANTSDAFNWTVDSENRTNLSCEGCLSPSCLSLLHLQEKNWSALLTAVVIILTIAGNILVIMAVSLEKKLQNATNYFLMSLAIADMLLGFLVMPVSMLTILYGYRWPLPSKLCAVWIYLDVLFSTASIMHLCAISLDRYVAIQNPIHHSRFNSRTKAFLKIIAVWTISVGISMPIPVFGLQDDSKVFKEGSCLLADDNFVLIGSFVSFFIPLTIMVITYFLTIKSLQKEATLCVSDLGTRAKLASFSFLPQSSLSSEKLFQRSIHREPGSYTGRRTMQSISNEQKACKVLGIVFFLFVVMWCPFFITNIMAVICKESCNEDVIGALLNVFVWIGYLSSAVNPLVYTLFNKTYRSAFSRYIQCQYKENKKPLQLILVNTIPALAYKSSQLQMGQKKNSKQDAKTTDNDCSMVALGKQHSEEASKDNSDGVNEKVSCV
T8 sequence (P35462 whole entry): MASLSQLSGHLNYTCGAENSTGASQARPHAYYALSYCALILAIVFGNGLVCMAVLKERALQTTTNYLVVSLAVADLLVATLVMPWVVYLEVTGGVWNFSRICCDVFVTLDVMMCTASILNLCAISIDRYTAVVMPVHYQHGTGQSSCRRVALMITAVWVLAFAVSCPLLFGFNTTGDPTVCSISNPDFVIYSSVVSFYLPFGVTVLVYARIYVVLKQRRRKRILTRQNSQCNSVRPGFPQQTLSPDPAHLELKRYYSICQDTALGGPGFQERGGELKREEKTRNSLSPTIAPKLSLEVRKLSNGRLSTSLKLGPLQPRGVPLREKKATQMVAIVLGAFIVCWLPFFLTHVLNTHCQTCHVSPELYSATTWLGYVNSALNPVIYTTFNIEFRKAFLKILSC

| Compound | inhibition at 10 µM (hD2L receptor) | inhibition at 10 µM (hD4.2 receptor) | inhibition at 10 µM (5-HT1a) | IC50 [1] | 5-HT6 affinity compared with known selective antagonists [1] | inhibition at 10 µM [1] | inhibition at 10 µM (5-HT2a) | inhibition at 10 µM (5-HT2c) | melting point | inhibition at 10 µM (5-HT7) | inhibition at 10 µM (D1) | inhibition at 10 µM (hD3 receptor) |
| --- | --- | --- | --- | --- | --- | --- | --- | --- | --- | --- | --- | --- |
| COc1cc(Cl)c2c(c1)NC(=O)C(C)(c1ccc(Br)cc1)C2=O (centres unmarked) [Example 52, 3-(4-bromo-phenyl)-5-chloro-7-methoxy-3-methyl-1H-quinoline-2,4-dione] | 9.3% | 0% | 7.8% | 73 nM | almost same affinities as or better affinities than known selective antagonists | 89.6% | 30.6% | 20% | 239 to 240 °C | 8.8% | 41.5% | 7.4% |
| CCNc1ccc(C2(C)C(=O)Nc3cc(Cl)cc(Cl)c3C2=O)cc1 (centres unmarked) [Example 41, 5,7-dichloro-3-methyl-3-(4-ethylamino-phenyl)-1H-quinoline-2,4-dione] | 25.2% | 0% | 15.7% | 46 nM | almost same affinities as or better affinities than known selective antagonists | 67.7% | 10.8% | 14% | – | 15.4% | 24% | 12.6% |
| COc1cc(Cl)c2c(c1)NC(=O)C(C)(c1ccccc1)C2=O (centres unmarked) [Example 5, 5-chloro-7-methoxy-3-methyl-3-phenyl-1H-quinoline-2,4-dione] | 20.5% | 0% | 18.9% | 560 nM | – | 73.5% | 26.8% | 20.5% | – | 9.4% | 10.3% | 10.1% |
| CC1(c2ccc(O)cc2)C(=O)Nc2ccccc2C1=O (centres unmarked) [Example 34, 3-(4-hydroxy-phenyl)-3-methyl-1H-quinoline-2,4-dione] | 17.3% | 0% | 19.8% | 1260 nM | – | 70.8% | 13.5% | 20.1% | – | 0.9% | 15.8% | 25.4% |
| COc1ccc(C2(C)C(=O)Nc3c(Br)cc(Br)cc3C2=O)cc1N (centres unmarked) [Example 29, 3-(3-amino-4-methoxy-phenyl)-6,8-dibromo-3-methyl-1H-quinoline-2,4-dione] | 5.6% | 11.6% | 40.7% | 1550 nM | – | 68.5% | 21.1% | 40.6% | – | 28.1% | 23.6% | 43.8% |
| CC1(c2ccc(Br)cc2Br)C(=O)Nc2cc(Cl)ccc2C1=O (centres unmarked) [Example 45, 7-chloro-3-(2,4-dibromo-phenyl)-3-methyl-1H-quinoline-2,4-dione] | 13% | 0% | 60.3% | 2220 nM | – | 66% | 23% | 31.6% | – | 29.5% | 42.3% | 5.6% |
| CN1CCN(c2cc(Cl)c3c(c2)NC(=O)C(C)(c2ccc(N)cc2)C3=O)CC1 (centres unmarked) [Example 48, 3-(4-amino-phenyl) -5-chloro-3-methyl-7-(4-methyl-piperazine-1-yl)-1H-quinoline-2,4-dione] | 19.6% | 0% | 35% | 1080 nM | – | 71.6% | 37.2% | 2.5% | – | 5.6% | 27.4% | 8.7% |
| CC1(c2ccc(O)c(N)c2)C(=O)Nc2c(Br)cc(Br)cc2C1=O (centres unmarked) [Example 30, 3-(3-amino-4-hydroxy-phenyl)-6,8-dibromo-3-methyl-1H-quinoline-2,4-dione] | 18.5% | 0.9% | 0% | 1730 nM | – | 69.2% | 35.1% | 5.4% | – | 4.9% | 18.6% | 25.1% |
| CN1CCN(c2cc(Cl)c3c(c2)NC(=O)C(C)(c2ccc(O)cc2)C3=O)CC1 (centres unmarked) [Example 47, 5-chloro-3-(4-hydroxy-phenyl)-3-methyl-7-(4-methyl-piperazine-1-yl)-1H-quinoline-2,4-dione] | 27.2% | 12.8% | 27.1% | 1060 nM | – | 71.9% | 42.8% | 12.4% | – | 16.3% | 20.9% | 14.2% |
| COc1ccc(C2(C)C(=O)Nc3ccccc3C2=O)cc1 (centres unmarked) [Example 33, 3-(4-methoxy-phenyl)-3-methyl-1H-quinoline-2,4-dione] | 20.9% | 0% | 20.4% | 487 nM | – | 72.4% | 10.7% | 13.5% | – | 6.6% | 29.5% | 13.1% |
| CC1(c2ccccc2)C(=O)Nc2c(Br)cc(Br)cc2C1=O (centres unmarked) [Example 10, 6,8-dibromo-3-methyl-3-phenyl-1H-quinoline-2,14-dione] | 11.2% | 0% | 0% | 1330 nM | – | 73.4% | 29.5% | 16.8% | – | 20.7% | 13.5% | 19.5% |
